Laboratory results reported in patent US5612327A, “1α,24-(OH)2 -cholecalciferol emulsion composition and method for treating psoriasis” (priority 1993, dated 1997).

Columns and labels:
[1] = tested on: excised skin (full skin) of Wistar rat; test: Skin permeability of active ingredient from cream composition; assay type: in vitro ADME; conditions: 0.25 part by weight in bases of Examples 1, 4, 5 and Control Examples 14 to 21; Test Method 3
From the text: For the skin, use was made of skin cut off from a dilapidated Wistar rat (full skin=including stratum corneum, epidermis, and dermis). For the reservoir solution, use was made of Hanks buffer (pH=7.4) plus 10% bovine fetal serum. […] (For the method of assay, see below.)

[2] = Solubility and chemical stability of 1α,24-(OH)2 --V.D3; assay type: physicochemical; conditions: non-polar solvent

Structure (SMILES): CC(=O)OCC(=O)[C@@]1(O)CC[C@H]2[C@@H]3CCC4=CC(=O)CC[C@]4(C)[C@H]3[C@@H](O)C[C@@]21C [hydrocortisone acetate]
- Skin permeability of hydrocortisone acetate (in words) [1]: almost completely unrelated to the weight ratio of the stearyl alcohol and cetyl alcohol

Structure (SMILES): C=C1C(=CC=C2CCCC3(C)C2CCC3C(C)CCC(O)C(C)C)CC(O)CC1O (stereo not drawn) [1α,24-(OH)2 --V.D3, 1α,24-dihydroxylcholecalciferol]
- Solubility (in words) [2]: does not dissolve much at all in a non-polar solvent
